Source: patent publication US7666890B2, “Synthesis and herbicidal activity of 1- (2-substituted benzo[d]thiazol-5-yl)-1H-1,2,4-triazol-5(4H)-one derivatives” (Huazhong Normal University, priority 2007, dated 2010)

Experiments:
Test in all cases: Test of herbicidal activities (greenhouse pot method)
Type in all cases: in vivo
Settings in all cases: single dose 300 g ai./h, treated before/after germination, 15 days later, greenhouse pot
Digiatria sanguinalis = system: Digiatria sanguinalis
Method in brief: (§1)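 Greenhouse pot test on weeds grown in mixed garden/mountain/humus soil at 15-30° C; pre- and post-emergence spray at a single dose of 300 g ai./h via automatic spraying tower (0.2 MPa). Inhibition scored after 15 days into five levels A (90-100%) to E (<50%); triplicate with blank control.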

Setaria viridis = system: Setaria viridis
Method in brief: as §1

Amaranthus retroflexus = system: Amaranthus retroflexus
Method in brief: as §1

Chenopodium album = system: Chenopodium album
Method in brief: as §1

Echinochloa crusgalli = system: Echinochloa crusgalli
Method in brief: as §1

Brassica juncea = system: Brassica juncea
Method in brief: as §1

SMILES | Herbicidal activity Digiatria sanguinalis (inhibition level) (Digiatria sanguinalis) | Herbicidal activity Setaria viridis (inhibition level) (Setaria viridis) | Herbicidal activity Amaranthus retroflexus (inhibition level) (Amaranthus retroflexus) | Herbicidal activity Chenopodium album (inhibition level) (Chenopodium album) | Herbicidal activity Echinochloa crusgalli (inhibition level) (Echinochloa crusgalli) | Herbicidal activity Brassica juncea (inhibition level) (Brassica juncea)
CCOC(=O)CS(=O)(=O)c1nc2cc(-n3nc(C)n(C(F)F)c3=O)c(Br)cc2s1 [Compound 54] | C (60 ≦ C < 80%) | D (50 ≦ D < 60%) | B (80 ≦ B < 90%) | C (60 ≦ C < 80%) | B (80 ≦ B < 90%) | A (90 ≦ A ≦ 100%)
Cc1nn(-c2cc3nc(S(=O)(=O)Cc4ccc(F)cc4F)sc3cc2F)c(=O)n1C(F)F [Compound 49] | C (60 ≦ C < 80%) | D (50 ≦ D < 60%) | A (90 ≦ A ≦ 100%) | B (80 ≦ B < 90%) | A (90 ≦ A ≦ 100%) | A (90 ≦ A ≦ 100%)
CSc1nc2cc(-n3nc(C(F)(F)F)n(C(F)F)c3=O)c(Cl)cc2s1 [Compound 125] | B (80 ≦ B < 90%) | C (60 ≦ C < 80%) | A (90 ≦ A ≦ 100%) | B (80 ≦ B < 90%) | B (80 ≦ B < 90%) | C (60 ≦ C < 80%)
Cc1nn(-c2cc3nc(SCc4cccc(Cl)c4)sc3cc2F)c(=O)n1C [Compound 32] | A (90 ≦ A ≦ 100%) | C (60 ≦ C < 80%) | A (90 ≦ A ≦ 100%) | A (90 ≦ A ≦ 100%) | B (80 ≦ B < 90%) | B (80 ≦ B < 90%)
CCCCCCSc1nc2cc(-n3nc(C)n(C(F)F)c3=O)c(Cl)cc2s1 [Compound 85] | A (90 ≦ A ≦ 100%) | A (90 ≦ A ≦ 100%) | B (80 ≦ B < 90%) | B (80 ≦ B < 90%) | B (80 ≦ B < 90%) | B (80 ≦ B < 90%)
CCOC(=O)C(C)S(=O)(=O)c1nc2cc(-n3nc(C)n(C(F)F)c3=O)c(Cl)cc2s1 (stereo not drawn) [Compound 67] | A (90 ≦ A ≦ 100%) | B (80 ≦ B < 90%) | C (60 ≦ C < 80%) | B (80 ≦ B < 90%) | C (60 ≦ C < 80%) | B (80 ≦ B < 90%)
Cc1nn(-c2cc3nc(SCc4ccc(F)cc4F)sc3cc2Cl)c(=O)n1C(F)F [Compound 8] | B (80 ≦ B < 90%) | C (60 ≦ C < 80%) | C (60 ≦ C < 80%) | C (60 ≦ C < 80%) | E (E < 50%) | C (60 ≦ C < 80%)
Cc1nn(-c2cc3nc(SCc4cccc(Cl)c4)sc3cc2F)c(=O)n1C(F)F [Compound 23] | C (60 ≦ C < 80%) | D (50 ≦ D < 60%) | A (90 ≦ A ≦ 100%) | D (50 ≦ D < 60%) | C (60 ≦ C < 80%) | E (E < 50%)
CCC[S+]([O-])c1nc2cc(-n3nc(C)n(C(F)F)c3=O)c(Br)cc2s1 (stereo not drawn) [Compound 110] | B (80 ≦ B < 90%) | C (60 ≦ C < 80%) | B (80 ≦ B < 90%) | B (80 ≦ B < 90%) | A (90 ≦ A ≦ 100%) | B (80 ≦ B < 90%)
C=CCS(=O)(=O)c1nc2cc(-n3nc(C)n(C(F)F)c3=O)c(F)cc2s1 [Compound 66] | B (80 ≦ B < 90%) | A (90 ≦ A ≦ 100%) | B (80 ≦ B < 90%) | B (80 ≦ B < 90%) | A (90 ≦ A ≦ 100%) | B (80 ≦ B < 90%)
CCOC(=O)CSc1nc2cc(-n3nc(C(F)(F)F)n(C(F)F)c3=O)c(Br)cc2s1 [Compound 127] | B (80 ≦ B < 90%) | D (50 ≦ D < 60%) | B (80 ≦ B < 90%) | B (80 ≦ B < 90%) | C (60 ≦ C < 80%) | B (80 ≦ B < 90%)
